According to patent publication US12692264B2, “Pyrimidine or pyridine derivative, preparation method therefor, and application thereof in pharmacy” (ABBISKO THERAPEUTICS CO., LTD., priority 2021, dated 2026):

Key:
Assay type in all cases: cell-based
[1] = molecular target: Ba/F3 EGFR-D770-N771ins_SVD (Homo sapiens, UniProt P00533, DUP768-770, cells depend on it); assay: Cell proliferation study (CellTiter-Glo, 72 hrs), Ba/F3 EGFR-D770-N771ins_SVD; details: CTG, * = average of multiple measurements, read-out: Ba/F3 EGFR-D770-N771ins_SVD IC50
Procedure, shortened: (§1)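 Cells were seeded overnight, then exposed for 72 hrs at 37 °C, 5% CO2 to 9 concentrations in 3.16-fold steps, 0.1% DMSO final, triplicate wells. Viability was read by CellTiter-Glo luminescence, with a T0 plate read at dosing. IC50 came from nonlinear sigmoidal dose-response fits.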

[2] = test system: A431 (EGFR-WT); assay: Cell proliferation study (CellTiter-Glo, 72 hrs), A431; details: Homo sapiens, A-431, A431 cells, CTG, * = average of multiple measurements
Procedure, shortened: as §1

[3] = molecular target: Ba/F3 EGFR-V769_D770insASV (Homo sapiens, UniProt P00533, DUP767-769, cells depend on it); assay: Cell proliferation study (CellTiter-Glo, 72 hrs), Ba/F3 EGFR-V769_D770insASV; details: CTG, * = average of multiple measurements, read-out: Ba/F3 EGFR-V769_D770insASV IC50
Procedure, shortened: as §1

Sequence of Ba/F3 EGFR-D770-N771ins_SVD (P00533 with tags, fused parts or gaps DUP768-770): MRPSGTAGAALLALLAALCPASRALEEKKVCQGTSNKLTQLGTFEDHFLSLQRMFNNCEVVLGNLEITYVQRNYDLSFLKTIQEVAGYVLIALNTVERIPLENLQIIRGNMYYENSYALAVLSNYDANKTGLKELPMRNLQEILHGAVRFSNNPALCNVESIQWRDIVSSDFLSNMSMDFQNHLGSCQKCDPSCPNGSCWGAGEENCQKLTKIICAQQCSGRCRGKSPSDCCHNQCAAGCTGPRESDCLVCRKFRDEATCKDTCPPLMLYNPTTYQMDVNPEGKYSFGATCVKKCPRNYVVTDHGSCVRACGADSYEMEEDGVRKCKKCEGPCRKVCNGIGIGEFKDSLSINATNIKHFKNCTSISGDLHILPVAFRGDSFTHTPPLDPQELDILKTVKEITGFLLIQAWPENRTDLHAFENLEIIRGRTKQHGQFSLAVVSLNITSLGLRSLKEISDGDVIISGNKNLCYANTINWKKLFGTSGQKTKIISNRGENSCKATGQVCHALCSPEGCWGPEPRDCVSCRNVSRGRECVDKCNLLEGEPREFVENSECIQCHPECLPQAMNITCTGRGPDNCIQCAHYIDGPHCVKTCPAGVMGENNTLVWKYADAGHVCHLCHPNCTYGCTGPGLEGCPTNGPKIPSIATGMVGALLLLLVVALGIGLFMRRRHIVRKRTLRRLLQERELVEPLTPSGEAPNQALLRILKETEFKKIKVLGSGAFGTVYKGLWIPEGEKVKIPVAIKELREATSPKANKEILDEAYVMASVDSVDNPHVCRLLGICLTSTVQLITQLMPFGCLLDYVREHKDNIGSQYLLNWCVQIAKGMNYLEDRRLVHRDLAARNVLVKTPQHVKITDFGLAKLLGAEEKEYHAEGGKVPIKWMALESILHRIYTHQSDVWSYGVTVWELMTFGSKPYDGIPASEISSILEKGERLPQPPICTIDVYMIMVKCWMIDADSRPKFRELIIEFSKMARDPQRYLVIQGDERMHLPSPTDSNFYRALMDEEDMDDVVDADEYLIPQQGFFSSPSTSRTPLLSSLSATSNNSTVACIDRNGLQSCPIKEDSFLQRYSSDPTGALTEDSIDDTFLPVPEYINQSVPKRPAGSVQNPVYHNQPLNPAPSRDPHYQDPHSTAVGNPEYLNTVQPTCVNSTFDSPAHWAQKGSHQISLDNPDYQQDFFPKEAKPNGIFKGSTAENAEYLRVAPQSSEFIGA
Sequence of Ba/F3 EGFR-V769_D770insASV (P00533 with tags, fused parts or gaps DUP767-769): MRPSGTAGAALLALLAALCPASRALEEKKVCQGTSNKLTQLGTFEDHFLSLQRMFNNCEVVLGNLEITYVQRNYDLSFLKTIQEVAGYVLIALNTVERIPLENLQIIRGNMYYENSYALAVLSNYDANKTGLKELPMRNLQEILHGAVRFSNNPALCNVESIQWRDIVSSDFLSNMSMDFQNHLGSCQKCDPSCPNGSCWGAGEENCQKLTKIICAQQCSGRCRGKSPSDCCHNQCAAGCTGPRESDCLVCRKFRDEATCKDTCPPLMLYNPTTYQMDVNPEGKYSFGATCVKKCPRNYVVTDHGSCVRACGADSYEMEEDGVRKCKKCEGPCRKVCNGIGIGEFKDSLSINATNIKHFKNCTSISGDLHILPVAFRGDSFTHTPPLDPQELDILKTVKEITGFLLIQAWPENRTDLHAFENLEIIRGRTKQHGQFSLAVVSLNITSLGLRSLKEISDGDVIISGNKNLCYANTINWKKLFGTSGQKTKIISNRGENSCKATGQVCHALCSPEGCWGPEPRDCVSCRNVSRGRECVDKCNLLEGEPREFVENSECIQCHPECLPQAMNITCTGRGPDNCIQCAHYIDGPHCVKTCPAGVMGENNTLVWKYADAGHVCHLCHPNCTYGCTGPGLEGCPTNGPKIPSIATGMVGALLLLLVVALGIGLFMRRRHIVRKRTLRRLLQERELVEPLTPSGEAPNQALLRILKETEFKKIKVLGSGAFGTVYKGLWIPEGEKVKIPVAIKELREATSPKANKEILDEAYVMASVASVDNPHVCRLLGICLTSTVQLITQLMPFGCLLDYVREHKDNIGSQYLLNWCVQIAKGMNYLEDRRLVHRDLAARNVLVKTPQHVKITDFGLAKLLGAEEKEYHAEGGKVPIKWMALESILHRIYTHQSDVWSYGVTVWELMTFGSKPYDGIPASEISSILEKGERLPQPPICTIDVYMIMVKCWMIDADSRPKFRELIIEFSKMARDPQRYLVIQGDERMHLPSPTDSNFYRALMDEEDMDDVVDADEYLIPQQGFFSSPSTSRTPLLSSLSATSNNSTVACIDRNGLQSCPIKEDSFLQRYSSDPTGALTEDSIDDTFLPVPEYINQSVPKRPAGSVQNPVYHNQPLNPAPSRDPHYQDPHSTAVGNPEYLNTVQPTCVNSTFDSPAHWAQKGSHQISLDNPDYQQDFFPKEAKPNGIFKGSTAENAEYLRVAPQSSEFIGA

| Structure (SMILES) | GI50 [1] [nM] | IC50 [2] [nM] | GI50 [3] [nM] |
| --- | --- | --- | --- |
| C=CC(=O)Nc1cc(Nc2ncc(C(=O)OC(C)C)c(N3CC(C)(C)c4nc(C)ccc43)n2)c(O)cc1N(C)CCN(C)C [Example 54, isopropyl 2-((5-acrylamido-4-((2-(dimethylami-no)ethyl)(methyl)amino)-2-hydroxy-phenyl)amino)-4-(3,3,5-trimethyl-2,3-dihydro-1H-pyrrolo[3,2-b]pyridin-1-yl)pyrimidine-5-carboxylate] | 77 | 1140 | 81.9 |
| C=CC(=O)Nc1cc(Nc2ncc(C(=O)OC(C)C)c(N3CC(C)(C)c4nc(C)ccc43)n2)c(OC)cc1N(C)CCN(C)C [Example 1, isopropyl 2-((5-acrylamido-4-((2-(dimethylamino)ethyl)(methyl)amino)-2-methoxyphenyl)amino)-4-(3,3,5-trimethyl-2,3-dihydro-1H-pyrrolo[3,2-b]pyridin-1-yl)pyrimidine-5-carboxylate] | 7 | 105 | 10.4 |
| C=CC(=O)Nc1cc(Nc2ncc(C(=O)OC(C)C)c(N3CC(C)(C)c4nc(C)ccc43)n2)c(OC)cc1N(C)CCN(CC)CC [Example 56, isopropyl 2-((5-acrylamido-4-((2-(diethylami-no)ethyl)(methyl)amino)-2-methoxy-phenyl)amino)-4-(3,3,5-trimethyl-2,3-dihydro-1H-pyrrolo[3,2-b]pyridin-1-yl)pyrimidine-5-carboxylate] | 33.5 | 301 | 91.1 |
| C#Cc1ccc2c(n1)C(C)(C)CN2c1nc(Nc2cc(NC(=O)C=C)c(N(C)CCN(C)C)cc2OC)ncc1C(=O)OC(C)C [Example 9, isopropyl 2-((5-acrylamido-4-((2-(dimethylamino)ethyl)(methyl)amino)-2-methoxyphenyl)amino)-4-(5-ethynyl-3,3-dimethyl-2,3-dihydro-1H-pyrrolo[3,2-b]pyridin-1-yl)pyrimidine-5-carboxylate] | 17.8 | 23.3 | 31.8 |

Other lines, results leading:

| GI50 [1] [nM] | IC50 [2] [nM] | GI50 [3] [nM] | Structure (SMILES) |
| --- | --- | --- | --- |
| 12.3 | 90 | 34.8 | [2H]C([2H])([2H])C1(C([2H])([2H])[2H])CN(c2nc(Nc3cc(NC(=O)C=C)c(N(C)CCN(C)C)cc3OC)ncc2C(=O)OC(C)C)c2ccc(C)nc21 [Example 73, isopropyl 2-((5-acrylamido-4-((2-(dimethylami-no)ethyl)(methyl)amino)-2-methoxy-phenyl)amino)-4-(5-methyl-3,3-bis(methyl-d3)-2,3-dihydro-1H-pyrrolo[3,2-b]pyridin-1-yl)pyrimidine-5-carboxylate] |
| 31.9 | 761 | 37.9 | C=CC(=O)Nc1cc(Nc2ncc(C(=O)OC(C)C)c(N3CC(C)(C)c4nc(C)ccc43)n2)c(OC)cc1N1CCC[C@H](N(C)C)C1 [Example 60, isopropyl (S)-2-((5-acrylamido-4-(3-(dimethyl-amino)piperidin-1-yl)-2-methoxy-phenyl)amino)-4-(3,3,5-trimethyl-2,3-dihydro-1H-pyrrolo[3,2-b]pyridin-1-yl)pyrimidine-5-carboxylate] |
| 30.9 | 1260 | 93.9 | C=CC(=O)Nc1cc(Nc2ncc(C(=O)OC(C)C)c(N3CC(C)(C)c4nc(C#CC)ccc43)n2)c(OC)cc1N1CC(N(C)C)C1 [Example 76, isopropyl 2-((5-acrylamido-4-(3-(dimethylami-no)azetidin-1-yl)-2-methoxyphenyl)ami-no)-4-(3,3-dimethyl-5-(prop-1-yn-1-yl)-2,3-dihydro-1H-pyrrolo[3,2-b]pyridin-1-yl)pyrimidine-5-carboxylate] |
| 10.9 | 57 | 13.6 | C=CC(=O)Nc1cc(Nc2ncc(C(=O)OC(C)C)c(N3CC(C)(C)c4nc(C)ccc43)n2)c(OC)cc1N1CCC[C@@H]1CN(C)C [Example 83, isopropyl (R)-2-((5-acrylamido-4-(2-((dimethyl-amino)methyl)pyrrolidin-1-yl)-2-meth-oxyphenyl)amino)-4-(3,3,5-trimethyl-2,3-dihydro-1H-pyrrolo[3,2-b]pyridin-1-yl)pyrimidine-5-carboxylate] |
